The source of these data is publication PMC7367873, “Dissecting the sequence determinants for dephosphorylation by the catalytic subunits of phosphatases PP1 and PP2A” (Nature Communications, 2020).

For one assay, the system named is PP1c/PP2Ac. In words: PP1c versus PP2Ac specificity of p-sites (pairwise comparison / hierarchical clustering of phosphoproteomic data). Particulars: HeLa Kyoto lysate; for Sensitivity (phosphatase exclusively dephosphorylating the p-site): p-site significantly decreased exclusively by PP1c or PP2Ac, 1 µM phosphatase, 1 h, 30 °C. In kind it is biochemical, human. Here is the method: For phosphoproteomics, HeLa Kyoto cells were incubated with 20 nM Calyculin A (CST, #9902) for 10–15 min. This time point was determined empirically to yield maximal phosphatase inhibition without cells showing pleiotropic effects. Subsequently, cells were placed on ice and washed twice with cold PBS and scraped in lysis buffer (100 mM NaCl, 10 mM Tris, 0.1% IGEPAL, 1 mM EDTA, 1 mM EGTA, 20 nM Calyculin A, 1x cOmplete Mini protease inhibitor cocktail (Sigma), 1 mM DTT, 1 mM MnCl2, pH 7.5). After 10 pushes through an injection needle (21 G, BD), lysate was cleared from the insoluble fraction by centrifugation (10 min, 10^4 rcf, 4 °C). Protein concentration was then determined by a Bradford Assay and equal amounts of 1 mg total protein were incubated with recombinant PP1c/PP2Ac or buffer at a final phosphatase concentration of 1 µM in a total volume of 200 µL for 1 h at 30 °C. Lysates were then immediately placed on ice. PhosStop […] (Roche) was added and proteins were denatured by adding urea to a final concentration of 8 M taking into account the volume increase. Samples were then snap-frozen in liquid nitrogen for storage and subsequent MS analysis.
Downstream analysis of the phosphoproteomic datasets was carried out using the software tool Perseus[66]. For analysis of phosphoproteomic experiments, row-wise, median-normalized data (see previous section) was linked to known regulatory sites by PhosphoSitePlus entries and categorical columns for treatments were assigned. Reverse peptides and potential contaminants were filtered. Next, categorical columns for biological functions and treatments were assigned. TMT reporter intensities were then transformed into log2. At this point, all data were then filtered for valid values in all three replicates of at least one condition. Next, the distribution of TMT reporter intensities was assessed visually by plotting count-based histogramms and in a multiscatter plot using the Pearson correlation as an estimate of reproducibility. Next, NA (=not available: missing) values were replaced by imputation from a normal distribution (width 0.3, down-shift 1.8, per column). The data quality was routinely assessed by two means: First, by plotting a histogram of peptide length vs. counts and visualization of imputed values to confirm a normal distribution of the data, and secondly by principal component analysis (default settings in Perseus) to judge the sample grouping.
For hierarchical clustering, the results of the one-way ANOVA were processed for two more steps in Perseus: first data were filtered for significant hits from the one-way ANOVA and then subjected to z-transformation. Hierarchical clustering images were produced using Euclidean distance, 300 clusters and 10 rounds of iteration.
Also all further data processing for protein enrichment and extraction of protein sequences in positions −5 to +5 relative to the p-sites of interest for subsequent motif analysis was performed using RStudio with R v3.3.2 using the packages tidyverse and BioStrings. In order to study the sequence specificity of PP1c and PP2Ac on the protein level, position specific probability matrices, representing the relative occurrence for each amino acid surrounding pSer/pThr were produced by extracting sequence information in positions −5 to +5 for all PP1c/PP2Ac-sensitive class I p-sites. Next, the count for each amino acid in each position was divided by the total of all counts for a certain position, resulting in relative abundance. […] Importantly, amino acids with less than 25 counts in PP1-sensitive/-insensitive or PP2A-sensitive/insensitive comparisons were excluded. For calculating a heat map directly comparing PP1c against PP2Ac, these fold changes were divided. […] Obtained p-values were adjusted for multiple testing using the method of Benjamini and Hochberg.
PP1c/PP2Ac-sensitive class I sites were divided into three classes as illustrated for PP1c in Supplementary Fig. 4c. […]

A further assay concerns the target T1, PP1c (Homo sapiens, UniProt P62136).
T1 construct: His tag with TEV site (N, cleaved yes); intein (pTXB1) (C, cleaved yes); made in house; host or cells: E. coli BL21Star(DE3)pRARE
The assay can be described thus: Kinetics of phosphopeptide dephosphorylation by PP1c (EnzChek Phosphate Assay). In kind it is biochemical. Particulars: non-competitive phosphatase activity assay, Supplementary Fig. 3c. Here is the method: (§1) Prior to library dephosphorylation with subsequent MS analysis, as well as for the confirmation of MS results by directed peptide synthesis and dephosphorylation kinetics, the release of phosphate over time from peptides or libraries had to be monitored: The libraries and peptides were dissolved in 25% DMSO and 75% H2O at 10 mM. The EnzChek Phosphate Assay Kit (Thermo Fisher Scientific) was used to assess the kinetics/dynamics of the library or peptide dephosphorylation by PP1c and PP2Ac. The assay was carried out in a volume of 100 µL reaction buffer (20 mM Tris, 100 mM NaCl, 1 mM DTT, 0.15 units PNP, 0.2 mM MESG,) containing 100 µM phosphopeptide library or indicated concentrations of peptide and 25 nM phosphatase. Because of our goal to identify differences in selectivity, we used equimolar concentrations of the phosphatases. […] The change of absorbance was detected at 360 nm at 25 °C on a Synergy H4 microplate reader using the software Gen5. […] For analysis of enzyme kinetics, raw data were further analyzed in GraphPad Prism v6.
(§2) The datasets of Nterm or Cterm libraries treated with recombinant PP1c and PP2Ac were used. […] Data analysis was carried out in GraphPad Prism v6 and the kcat/Km was calculated by comparison to a phosphate standard. […]

For a further assay, the target named is T2, PP2Ac (Homo sapiens, UniProt P67775).
T2 construct: purchased Cayman Chemical 10011237
T2 sequence (P67775 1-308 limits assumed): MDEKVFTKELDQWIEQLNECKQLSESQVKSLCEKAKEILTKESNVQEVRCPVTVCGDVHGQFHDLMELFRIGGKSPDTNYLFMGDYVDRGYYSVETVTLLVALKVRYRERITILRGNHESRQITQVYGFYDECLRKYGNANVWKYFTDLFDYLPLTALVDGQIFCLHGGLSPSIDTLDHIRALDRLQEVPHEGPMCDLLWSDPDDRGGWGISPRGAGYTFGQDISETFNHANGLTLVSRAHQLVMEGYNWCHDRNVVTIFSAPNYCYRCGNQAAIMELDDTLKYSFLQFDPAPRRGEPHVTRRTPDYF
The assay can be described thus: Kinetics of phosphopeptide dephosphorylation by PP2Ac (EnzChek Phosphate Assay). In kind it is biochemical. Particulars: non-competitive phosphatase activity assay, Supplementary Fig. 3c. Here is the method: as §1, §2

T1 sequence (P62136 whole entry): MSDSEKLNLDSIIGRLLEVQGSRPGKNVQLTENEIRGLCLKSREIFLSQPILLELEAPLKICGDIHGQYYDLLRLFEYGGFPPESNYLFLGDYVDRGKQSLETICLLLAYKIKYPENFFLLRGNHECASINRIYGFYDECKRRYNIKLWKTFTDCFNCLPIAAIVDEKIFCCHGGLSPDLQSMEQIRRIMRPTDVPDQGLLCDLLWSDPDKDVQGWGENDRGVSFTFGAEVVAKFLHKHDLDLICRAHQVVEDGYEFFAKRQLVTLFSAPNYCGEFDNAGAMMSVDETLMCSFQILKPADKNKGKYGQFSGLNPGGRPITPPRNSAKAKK

Consider “HPPRKISTEDINKRLSLPADIRLPEGYLEKL [CDK16 119]”, for which the “Sensitivity (phosphatase exclusively dephosphorylating the p-site)” value in the assay with PP1c/PP2Ac is on record as “PP1c”. The same measure, in the same setting: next, “SRSF1 199: S/R-rich splicing factor p-site, window VDGPRSPSYGR”: “PP1c”. For the substance “ISPTIVQQFGYQRRASDDGKLTDPSKTSNTI [RAF1 43]”, the “Sensitivity (phosphatase exclusively dephosphorylating the p-site)” value with PP1c/PP2Ac is listed as “PP1c”. Same read-out and setting: with “SRSF5 233: S/R-rich splicing factor p-site, window RSVSRSPVPEK” the entry was “PP1c”; with “SRSF7 192: S/R-rich splicing factor p-site, window SRYFQSPSRSR”, “PP1c”. Still for that read-out and setting: with “KGDIKSKSRSRSQSRSNSPLPVPPSKARSVS [SRSF6 301]” the entry was “PP1c”; with “KRKSKSRSRSKRPPKSPEEEGQMSS______ [SRSF8 273]”, “PP1c”. Turning to “HSF1 307: 14-3-3 interaction site, window PSPPQSPRVEE”, in the assay with PP1c/PP2Ac, the “Sensitivity (phosphatase exclusively dephosphorylating the p-site)” value is on record as “PP2Ac”. As for “LHQCISRRAENARSASFSQGTRASFLMRSDT [GAB2 210]”, in the assay with PP1c/PP2Ac (1 µM PP1c or PP2Ac), the “GAB2 pS210 dephosphorylation in phosphoproteomic assay” value is given as “dephosphorylated by PP1c but not PP2Ac”. The “Sensitivity (phosphatase exclusively dephosphorylating the p-site)” value in the assay on PP1c/PP2Ac is “PP1c”. With “SPPPVSKRESKSRSRSKSPPKSPEEEGAVSS [SRSF2 206]”, the “Sensitivity (phosphatase exclusively dephosphorylating the p-site)” value in the assay with PP1c/PP2Ac is recorded as “PP1c”.

Consider “SRSF8 163: S/R-rich splicing factor p-site, window SPYSRSPYSRS”, for which, in the assay with PP1c/PP2Ac, the “Sensitivity (phosphatase exclusively dephosphorylating the p-site)” value is “PP1c”. Same read-out and setting: with “NIFSRGANRMRGRLGSVDSFERSNSLASEKD [TBC1D4 588]” the entry was “PP1c”; with “SRSF8 158: S/R-rich splicing factor p-site, window SRYSRSPYSRS”, “PP1c”. Still for that read-out and setting: with “USP8 718: 14-3-3 interaction site, window LKRSYSSPDIT” the entry was “PP1c”; with “HSF1 303: 14-3-3 interaction site, window KEEPPSPPQSP”, “PP2Ac”; with “SRSF11 207: S/R-rich splicing factor p-site, window AAGLVSPSLKS”, “PP2Ac”. On to “YAP1 127: 14-3-3 interaction site, window VRAHSSPASLQ”, for which the “Sensitivity (phosphatase exclusively dephosphorylating the p-site)” value with PP1c/PP2Ac was “PP2Ac”. On the same count and under the same terms, with “EVPVPPPVPPRRRPESAPAESSPSKIMSKHL [SOS1 1161]” the entry was “PP1c”. For the substance “SRSF5 231: S/R-rich splicing factor p-site, window KSRSVSRSPVP”, the “Sensitivity (phosphatase exclusively dephosphorylating the p-site)” value in the assay on PP1c/PP2Ac is on record as “PP1c”. Turning to “AAAApTPFGAK [Cterm peptide with Pro in +1]”, the “dephosphorylation by PP1c of peptide with Pro in +1 (in words)” value on PP1c was “good substrate”. Moreover, the “dephosphorylation by PP2Ac of peptide with Pro in +1 (in words)” value on PP2Ac is “unable to dephosphorylate”. As to “SRSF4/5/6 113;117;119: S/R-rich splicing factor p-site, window VENLSSRCSWQ”, the “Sensitivity (phosphatase exclusively dephosphorylating the p-site)” value with PP1c/PP2Ac is on record as “PP2Ac”. On the same count and under the same terms, with “SRSF2 189: S/R-rich splicing factor p-site, window RSRSRSRSPPP” the entry was “PP1c”; with “SRSF2 191: S/R-rich splicing factor p-site, window RSRSRSPPPVS”, “PP1c”.

Take “SRSF10 133: S/R-rich splicing factor p-site, window RSRSRSFDYNY”: in the assay on PP1c/PP2Ac, the “Sensitivity (phosphatase exclusively dephosphorylating the p-site)” value was “PP1c”.
